In patent EP0562731A1, “Substituted pyridinesulfonamide compounds or their salts, process for preparing the same, and herbicides containing the same” (ISHIHARA SANGYO KAISHA, Ltd., priority 1992, dated 1993):

Legend:
Format in all cases: in vivo
cotton (Gossypium) = test: Test Example 1: foliar application pot test, visual growth control rating; details: wettable powder, observed 20 to 31 days after application
From the text: (§1) 1/1,500 are [are (a) = 100 m²] pots were filled with upland farming soil, which in the pots was then sown with a variety of plants. The plants grown will be enumerated below.
(§2) When each plant reached a given growth stage (a 1.2- to 3.0-leaf stage for rice, primary leaf to a 0.7-leaf stage for soybean, 2.1- to 3.6-leaf stage for corn, cotyledon to 0.7-leaf stage for cotton, 2.0- to 3.0-leaf stage for wheat, 0.3- to 3.4-leaf stage for cocklebur, 0.3- to 1.6-leaf stage for morning glory, 0.1- to 1.3-leaf stage for prickly sida, 0.1- to 1.3-leaf stage for slender amaranth, 1.5- to 3.2-leaf stage for barnyard glass, and 1.2- to 3.0-leaf stage for large crabgrass), a predetermined amount of the herbicide of the present invention in the form of a wettable powder, weighed out, diluted with 5 ℓ/a of water and admixed with 0.2 or 0.1 vol%, based on the resulting composition, of an agricultural spreader, was foliarly applied to the plant with a small spray gun. The progress of growth of the plant was visually observed 20 to 31 days after the foliar application to evaluate the degree of growth control according to 10 ratings (1: the same as in an untreated plot - 10: perfect growth control).

[1] = test system: cocklebur (Xanthium strumarium); test: as above; parameters: key: 1: the same as in an untreated plot; 10: perfect growth control; details: wettable powder, observed 20 to 31 days after application
From the text: as §1, §2

soybean (Glycine max) = test: as above; parameters: key: 1: the same as in an untreated plot; 10: perfect growth control; details: 1.25 g/a active ingredient, wettable powder, observed 20 to 31 days after application
From the text: as §1, §2

[2] = test system: slender amaranth (Amaranthus viridis); test: as above; parameters: key: 1: the same as in an untreated plot; 10: perfect growth control; details: wettable powder, observed 20 to 31 days after application
From the text: as §1, §2

[3] = test system: barnyard grass (Echinochloa crus-galli); test: as above; parameters: key: 1: the same as in an untreated plot; 10: perfect growth control; details: wettable powder, observed 20 to 31 days after application
From the text: as §1, §2

[4] = test system: large crabgrass (Digitaria adscendens); test: as above; parameters: key: 1: the same as in an untreated plot; 10: perfect growth control; details: wettable powder, observed 20 to 31 days after application
From the text: as §1, §2

[5] = test system: morning glory (Ipomoea purpurea); test: as above; parameters: key: 1: the same as in an untreated plot; 10: perfect growth control; details: wettable powder, observed 20 to 31 days after application
From the text: as §1, §2

rice (Oryza sativa) = test: as above; parameters: key: 1: the same as in an untreated plot; 10: perfect growth control; details: wettable powder, observed 20 to 31 days after application
From the text: as §1, §2

[6] = test system: prickly sida (Sida spinosa); test: as above; parameters: key: 1: the same as in an untreated plot; 10: perfect growth control; details: 1.25 g/a active ingredient, wettable powder, observed 20 to 31 days after application
From the text: as §1, §2

corn (Zea mays) = test: as above; parameters: key: 1: the same as in an untreated plot; 10: perfect growth control; details: wettable powder, observed 20 to 31 days after application
From the text: as §1, §2

velvet leaf [7] = test: Test Example 3: foliar application pot test, percent growth inhibition by fresh weight of aerial part and Colby's value; details: Abutilon theophrasti, velvet leaf 1-leaf stage, 20th day from foliar application, fresh weight of aerial part, read-out: Percent Growth Inhibition (%) Found
From the text: (§3) 1/10000-are pot was filled with upland farming soil and sown with velvet leaf. When the plant reached the 1-leaf stage, a predetermined amount of the herbicide of the present invention diluted with 5 ℓ of water per are and admixed with 0.1 vol%, based on the aqueous solution, of an agricultural spreader ("Kusa Rino") was foliarly applied to the plant with a small spray gun. On the 20th day from the application, the aerial part of the plant was weighed to obtain a percent growth inhibition according to Equation (1) (found value) and a Colby's value (calculated value) according to Equation (2) (see Weed, Vol. 15, pp. 20-22 (1967)). Percent Growth Inhibition (%) = (1 -(Fresh Weight of Aerial Part of Plant in Treated Plot)/(Fresh Weight of Aerial Part of Plant in Untreated Plot)) x 100 [formula] Colby's Value (E) = α + β -(α x β)/(100) [formula]
(§4) Wherein α represents a percent growth inhibition when treated with an amount a (g/a) of herbicide A; β represents a percent growth inhibition when treated with amount b (g/a) of herbicide B; and E represents an expected percent growth inhibition when treated with a of herbicide A and b of herbicide B.

[8] = test system: velvet leaf (Abutilon theophrasti); test: Test Example 2: foliar application pot test, visual herbicidal effect rating, single and combined herbicides; details: velvet leaf 1.2-leaf stage, 25 days after foliar application; also: ranges in brackets are in %
From the text: 1/10000-are pot was filled with upland farming soil and sown with velvet leaf (Abutilon theophrasti). When the plant reached the 1.2-leaf stage, a predetermined amount of the herbicide of the present invention diluted with 5 ℓ of water per are and admixed with 0.1 vol%, based on the aqueous solution, of an agricultural spreader ("Kusa Rino", produced by Nihon Nohyaku Co., Ltd.) was foliarly applied to the plant with a small spray gun. The herbicidal effect was visually observed 25 days after the foliar application and evaluated according to the rating system shown below.

velvet leaf [9] = test: Test Example 4: foliar application pot test, percent growth inhibition by fresh weight of aerial part and Colby's value; details: Abutilon theophrasti, velvet leaf 1-leaf stage, 20th day from foliar application, fresh weight of aerial part, read-out: Percent Growth Inhibition (%) Found
From the text: as §3, §4
(§5) 1/10000-are pot was filled with upland farming soil and sown with velvet leaf. When the plant reached the 1-leaf stage, a predetermined amount of the herbicide of the present invention diluted with 5 ℓ of water per are and admixed with 0.1 vol%, based on the aqueous solution, of an agricultural spreader ("Kusa Rino") was foliarly applied to the plant with a small spray gun. On the 20th day from the application, the aerial part of the plant was weighed to obtain a percent growth inhibition and a Colby's value in the same manner as in Test Example 3.

[10] = test system: large crabgrass (Digitaria adscendens); test: Test Example 5: foliar application pot test, percent growth inhibition by fresh weight of aerial part and Colby's value; details: foliar application, 20th day, large crabgrass, read-out: Percent Growth Inhibition (%) Found
From the text: as §3, §4
as §5, with “large crabgrass (Digitaria adscendens).” for “velvet leaf.”, “2-leaf” for “1-leaf”

## CCN(c1cccc(S(=O)(=O)NC(=O)Nc2nc(C)nc(OC)n2)n1)S(=O)(=O)CC(F)(F)F [compound 79]
Cotton (Gossypium); 1.25 g/a active ingredient
  degree of growth control, GO: 6
[1]; 1.25 g/a active ingredient
  degree of growth control, XA: 6
Soybean (Glycine max)
  degree of growth control, GL: 6
[2]; 1.25 g/a active ingredient
  degree of growth control, AM: 6
[3]; 1.25 g/a active ingredient
  degree of growth control, EC: 1
[4]; 1.25 g/a active ingredient
  degree of growth control, DI: 3
[5]; 1.25 g/a active ingredient
  degree of growth control, IP: 7
Rice (Oryza sativa); 1.25 g/a active ingredient
  degree of growth control, OR: 1
[6]
  degree of growth control, SI: 3
Corn (Zea mays); 1.25 g/a active ingredient
  degree of growth control, ZE: 1

## CCN(c1cccc(S(=O)(=O)NC(=O)Nc2nc(C)nc(OC)n2)n1)S(=O)(=O)C(C)Cl (racemic) [Compound No. 54, 6-[[N-(1-chloroethylsulfonyl)-N-ethyl]amino]-N-[[(4-methoxy-6-methyltriazin-2-yl)amino]carbonyl]-2-pyridinesulfonamide]
Velvet leaf [7]; 0.16 g/a
  inhibition at 16 g/ha: 19%
Velvet leaf [7]; 0.31 g/a
  inhibition at 31 g/ha: 52%
Velvet leaf [7]; 0.63 g/a
  inhibition at 63 g/ha: 86%
[8]; 0.16 g/a
  Rating: 3 (30-39)
[8]; 0.31 g/a
  Rating: 5 (50-59)
[8]; 0.63 g/a
  Rating: 6 (60-69)
[8]; 1.25 g/a
  Rating: 8 (80-89)
Velvet leaf [9]; 0.16 g/a
  inhibition at 16 g/ha: 12%
Velvet leaf [9]; 0.31 g/a
  inhibition at 31 g/ha: 32%
Velvet leaf [9]; 0.63 g/a
  inhibition at 63 g/ha: 66%
[2]; 0.31 g/a active ingredient
  degree of growth control, AM: 9
[2]; 1.25 g/a active ingredient
  degree of growth control, AM: 9
[3]; 0.31 g/a active ingredient
  degree of growth control, EC: 10
[3]; 1.25 g/a active ingredient
  degree of growth control, EC: 10
[4]; 0.31 g/a active ingredient
  degree of growth control, DI: 3
[4]; 1.25 g/a active ingredient
  degree of growth control, DI: 3
[5]; 0.31 g/a active ingredient
  degree of growth control, IP: 9
[5]; 1.25 g/a active ingredient
  degree of growth control, IP: 9
Rice (Oryza sativa); 0.31 g/a active ingredient
  degree of growth control, OR: 9
Rice (Oryza sativa); 1.25 g/a active ingredient
  degree of growth control, OR: 9
Corn (Zea mays); 0.31 g/a active ingredient
  degree of growth control, ZE: 10
Corn (Zea mays); 1.25 g/a active ingredient
  degree of growth control, ZE: 10
[10]; 0.16 g/a
  inhibition at 16 g/ha: 19%
[10]; 0.31 g/a
  inhibition at 31 g/ha: 24%
[10]; 0.63 g/a
  inhibition at 63 g/ha: 77%

## CCC(Cl)S(=O)(=O)N(CC)c1cccc(S(=O)(=O)NC(=O)Nc2nc(C)nc(OC)n2)n1 (racemic) [compound 88]
Cotton (Gossypium); 0.31 g/a active ingredient
  degree of growth control, GO: 6
Cotton (Gossypium); 1.25 g/a active ingredient
  degree of growth control, GO: 6
[1]; 0.31 g/a active ingredient
  degree of growth control, XA: 10
[1]; 1.25 g/a active ingredient
  degree of growth control, XA: 10
[3]; 0.31 g/a active ingredient
  degree of growth control, EC: 10
[3]; 1.25 g/a active ingredient
  degree of growth control, EC: 10
[5]; 0.31 g/a active ingredient
  degree of growth control, IP: 10
[5]; 1.25 g/a active ingredient
  degree of growth control, IP: 10
Corn (Zea mays); 0.31 g/a active ingredient
  degree of growth control, ZE: 10
Corn (Zea mays); 1.25 g/a active ingredient
  degree of growth control, ZE: 10
